Experimental data reported in ChEMBL document CHEMBL5537206 (J Med Chem, 2024).
Activity calls are given as the source filed them. The calls are words filed in the database; no cut-off is given here.

Assays:
[1] = system: Osimertinib-resistant NCI-H1975 cell; test: Antiproliferative activity against human Osimertinib-resistant NCI-H1975 cell (AZDR) incubated for 72 hrs by MTT assay; format: functional, cell-based
[2] = system: Osimertinib-resistant NCI-H1975 cell; test: Induction of apoptosis in human Osimertinib-resistant NCI-H1975 cell (AZDR) assessed as caspase3/7 activation using caspase-glo 3/7 as substrate at 0.1 to 10 uM by luminescence based analysis; format: functional; conditions: dose 0.1-10 µM, time 24-72 hrs, TDE = time-dependent effect
[3] = target: T1, Serine/threonine-protein kinase AKT (Homo sapiens) (UniProt P31751+Q9Y243+P31749); test: Inhibition of AKT phosphorylation in human NCI-H1975 cells incubated for 24 hrs by Western blot analysis; format: cell-based; conditions: dose 0.1-10 µM
[4] = Toxicity in BALB/c nude mouse assessed as effect on liver at 20 to 60 mg/kg, ip measured after 22 days by H and E staining based analysis; format: organism-based; conditions: in vivo, 528 h, dose 20-60 mg/kg, time 22 day
[5] = system: Osimertinib-resistant NCI-H1975 cell; test: Anticancer activity against human Osimertinib-resistant NCI-H1975 cell (AZDR) xenografted in BALB/c nude mouse model assessed as inhibition of tumor growth administered as ip dose and measured upto 22 days; format: functional, organism-based; conditions: dose 20-60 mg/kg, time <= 22.0 day
[6] = Toxicity in BALB/c nude mouse assessed as effect on heart at 20 to 60 mg/kg, ip measured after 22 days by H and E staining based analysis; format: organism-based; conditions: in vivo, 528 h, dose 20-60 mg/kg, time 22 day
[7] = system: Osimertinib-resistant NCI-H1975 cell; test: Anticancer activity against human Osimertinib-resistant NCI-H1975 cell (AZDR) xenografted in BALB/c nude mouse model assessed as increase in tumor cell apoptosis administered as ip dose by TUNEL assay; format: functional, organism-based; conditions: dose 20-60 mg/kg
MCF7 = test: Antiproliferative activity against human MCF7 cells incubated for 72 hrs by MTT assay; format: functional, cell-based; conditions: MCF7, 72 h
[8] = system: Osimertinib-resistant NCI-H1975 cell; test: Inhibition of cell migration in human Osimertinib-resistant NCI-H1975 cell (AZDR) measured after 24 hrs by wound healing assay; format: functional, cell-based; conditions: dose 0.1-10 µM
[9] = system: Osimertinib-resistant NCI-H1975 cell; test: Induction of apoptosis in human Osimertinib-resistant NCI-H1975 cell (AZDR) assessed as caspase3/7 activation using caspase-glo 3/7 as substrate incubated for 24 hrs by luminescence based analysis; format: functional; conditions: dose 0.1-10 µM
[10] = system: Osimertinib-resistant NCI-H1975 cell; test: Induction of apoptosis in human Osimertinib-resistant NCI-H1975 cell (AZDR) assessed as early apoptotic cells at 1 uM incubated for 24 hrs by Annexin V and propidium iodide staining based flow cytometry analysis (reference value: 3.38%); format: functional
[11] = system: Osimertinib-resistant NCI-H1975 cell; test: Induction of apoptosis in human Osimertinib-resistant NCI-H1975 cell (AZDR) assessed as late apoptotic cells at 10 uM incubated for 24 hrs by Annexin V and propidium iodide staining based flow cytometry analysis (reference value: 1.06%); format: functional
[12] = target: T2, Tyrosine-protein kinase ITK/TSK (Homo sapiens) (UniProt Q08881); test: Inhibition of human ITK at 1 uM relative to control
T2 sequence (whole entry): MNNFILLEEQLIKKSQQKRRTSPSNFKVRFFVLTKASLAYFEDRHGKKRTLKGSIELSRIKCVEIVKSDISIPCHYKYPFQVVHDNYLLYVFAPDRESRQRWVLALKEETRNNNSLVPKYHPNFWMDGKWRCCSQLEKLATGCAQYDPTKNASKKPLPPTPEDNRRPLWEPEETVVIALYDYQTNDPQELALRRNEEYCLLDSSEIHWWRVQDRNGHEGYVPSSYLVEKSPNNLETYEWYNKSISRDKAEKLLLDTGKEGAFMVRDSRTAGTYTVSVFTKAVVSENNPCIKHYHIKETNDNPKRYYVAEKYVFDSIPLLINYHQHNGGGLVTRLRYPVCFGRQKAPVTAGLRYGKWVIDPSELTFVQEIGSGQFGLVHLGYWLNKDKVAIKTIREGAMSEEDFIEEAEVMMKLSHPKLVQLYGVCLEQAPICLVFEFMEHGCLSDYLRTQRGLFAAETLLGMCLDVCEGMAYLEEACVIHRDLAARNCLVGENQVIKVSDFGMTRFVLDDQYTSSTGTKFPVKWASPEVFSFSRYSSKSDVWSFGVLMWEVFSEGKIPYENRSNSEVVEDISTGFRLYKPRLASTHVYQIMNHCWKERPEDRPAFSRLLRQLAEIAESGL

[13] = system: Osimertinib-resistant NCI-H1975 cell; test: Induction of apoptosis in human Osimertinib-resistant NCI-H1975 cell (AZDR) assessed as early apoptotic cells at 10 uM incubated for 24 hrs by Annexin V and propidium iodide staining based flow cytometry analysis (reference value: 3.38%); format: functional
[14] = target: T1, Serine/threonine-protein kinase AKT (Homo sapiens); test: Inhibition of AKT phosphorylation in human Osimertinib-resistant NCI-H1975 cell (AZDR) at 0.1 to 10 uM incubated for 24 hrs by Western blot analysis; format: cell-based; conditions: dose 0.1-10 µM
[15] = system: Osimertinib-resistant NCI-H1975 cell; test: Induction of apoptosis in human Osimertinib-resistant NCI-H1975 cell (AZDR) assessed as late apoptotic cells at 1 uM incubated for 24 hrs by Annexin V and propidium iodide staining based flow cytometry analysis (reference value: 1.06%); format: functional
[16] = Toxicity in BALB/c nude mouse assessed as effect on body weight at 20 to 60 mg/kg, ip measured upto 22 days; format: organism-based; conditions: in vivo, 528 h, dose 20-60 mg/kg, time < 22 day
Mus musculus = test: In vivo inhibition of EGFR L858R/T790M mutant in BALB/c nude mouse xenografted with human Osimertinib-resistant NCI-H1975 cell (AZDR) assessed as downregulation of AKT phosphorylation at 60 mg/kg, ip measured after 22 days; format: functional, organism-based; conditions: time 22.0 day
[17] = system: Osimertinib-resistant NCI-H1975 cell; test: Anticancer activity against human Osimertinib-resistant NCI-H1975 cell (AZDR) xenografted in BALB/c nude mouse model assessed as reduction in tumor weight administered as ip dose and measured upto 22 days; format: functional, organism-based; conditions: dose 20-60 mg/kg, time <= 22.0 day
[18] = Toxicity in BALB/c nude mouse assessed as effect on kidney at 20 to 60 mg/kg, ip measured after 22 days by H and E staining based analysis; format: organism-based; conditions: in vivo, 528 h, dose 20-60 mg/kg, time 22 day
[19] = system: Osimertinib-resistant NCI-H1975 cell; test: Induction of apoptosis in human Osimertinib-resistant NCI-H1975 cell (AZDR) assessed as early apoptotic cells at 0.1 uM incubated for 24 hrs by Annexin V and propidium iodide staining based flow cytometry analysis (reference value: 3.38%); format: functional
[20] = system: Osimertinib-resistant NCI-H1975 cell; test: Induction of apoptosis in human Osimertinib-resistant NCI-H1975 cell (AZDR) assessed as increase in number of apoptotic cells measured after 24 hrs by Hoechst 33258 staining based analysis; format: functional; conditions: dose 0.1-10 µM
[21] = system: Osimertinib-resistant NCI-H1975 cell; test: Inhibition of colony formation in human Osimertinib-resistant NCI-H1975 cell (AZDR) measured after 14 days by crystal violet staining based analysis; format: functional; conditions: dose 0.1-10 µM, time 14.0 day
NCI-H1975 = test: Antiproliferative activity against human NCI-H1975 cells incubated for 72 hrs by MTT assay; format: functional, cell-based; conditions: NCI-H1975, 72 h
[22] = system: Osimertinib-resistant NCI-H1975 cell; test: Induction of apoptosis in human Osimertinib-resistant NCI-H1975 cell (AZDR) assessed as late apoptotic cells at 0.1 uM incubated for 24 hrs by Annexin V and propidium iodide staining based flow cytometry analysis (reference value: 1.06%); format: functional
[23] = Stability of the compound assessed as half life in presence of glutathione at pH 7.4; format: physicochemical; conditions: solution containing glutathione
[24] = Toxicity in BALB/c nude mouse assessed as effect on lung at 20 to 60 mg/kg, ip measured after 22 days by H and E staining based analysis; format: organism-based; conditions: in vivo, 528 h, dose 20-60 mg/kg, time 22 day
[25] = Toxicity in BALB/c nude mouse assessed as effect on spleen at 20 to 60 mg/kg, ip measured after 22 days by H and E staining based analysis; format: organism-based; conditions: in vivo, 528 h, dose 20-60 mg/kg, time 22 day

T1 sequence (P31749 whole entry, looked up): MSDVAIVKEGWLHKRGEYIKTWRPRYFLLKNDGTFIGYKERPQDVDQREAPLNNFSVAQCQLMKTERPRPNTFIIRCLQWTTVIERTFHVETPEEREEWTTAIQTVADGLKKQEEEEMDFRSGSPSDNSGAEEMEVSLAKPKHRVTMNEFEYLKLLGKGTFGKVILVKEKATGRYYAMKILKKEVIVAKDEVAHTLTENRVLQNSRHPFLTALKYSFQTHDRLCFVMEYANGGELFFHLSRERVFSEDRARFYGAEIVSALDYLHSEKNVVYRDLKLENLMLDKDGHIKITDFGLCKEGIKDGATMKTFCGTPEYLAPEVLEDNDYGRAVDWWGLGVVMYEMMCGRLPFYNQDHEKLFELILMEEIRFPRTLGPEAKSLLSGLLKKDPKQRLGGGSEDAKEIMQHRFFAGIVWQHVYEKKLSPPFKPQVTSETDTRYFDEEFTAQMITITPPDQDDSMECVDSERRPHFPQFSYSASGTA
T1 sequence (P31751 whole entry, looked up): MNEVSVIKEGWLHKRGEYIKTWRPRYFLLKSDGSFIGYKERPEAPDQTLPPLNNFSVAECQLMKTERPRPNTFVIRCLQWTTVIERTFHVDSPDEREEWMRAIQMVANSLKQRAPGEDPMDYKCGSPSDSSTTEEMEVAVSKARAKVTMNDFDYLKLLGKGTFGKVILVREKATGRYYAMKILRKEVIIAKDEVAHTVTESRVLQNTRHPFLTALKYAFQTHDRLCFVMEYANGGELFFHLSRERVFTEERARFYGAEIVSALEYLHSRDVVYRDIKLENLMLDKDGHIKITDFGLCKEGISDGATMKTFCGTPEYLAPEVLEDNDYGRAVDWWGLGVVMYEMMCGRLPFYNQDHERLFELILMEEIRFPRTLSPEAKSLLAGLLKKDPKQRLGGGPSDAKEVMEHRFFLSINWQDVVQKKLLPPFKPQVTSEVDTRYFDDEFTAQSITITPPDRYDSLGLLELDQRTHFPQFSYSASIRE
T1 sequence (Q9Y243 whole entry, looked up): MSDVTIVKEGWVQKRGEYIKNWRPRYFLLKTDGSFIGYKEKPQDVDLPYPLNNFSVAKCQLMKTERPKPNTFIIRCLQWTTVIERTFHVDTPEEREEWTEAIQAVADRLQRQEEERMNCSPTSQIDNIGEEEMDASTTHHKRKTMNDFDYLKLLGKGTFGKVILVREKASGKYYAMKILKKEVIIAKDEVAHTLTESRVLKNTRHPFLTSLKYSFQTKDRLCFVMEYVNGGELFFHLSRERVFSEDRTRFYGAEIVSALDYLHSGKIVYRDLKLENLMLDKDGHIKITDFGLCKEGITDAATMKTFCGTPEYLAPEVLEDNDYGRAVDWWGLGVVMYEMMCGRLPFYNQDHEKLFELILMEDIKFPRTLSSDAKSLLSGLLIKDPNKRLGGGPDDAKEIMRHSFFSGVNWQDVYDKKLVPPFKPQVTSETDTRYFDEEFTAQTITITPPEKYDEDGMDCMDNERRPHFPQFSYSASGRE

C=CC(=O)Nc1cccc(Nc2nc(Nc3cnn(CC)c3)nc3ccc(Cl)cc23)c1
IC50 [1]: 670 nM | Activity [2]: Tde | inhibition [3]: Dose-Dependent Effect | Activity [4]: Non-Toxic | Activity [5]: Dose-Dependent Effect | Activity [6]: Non-Toxic | Activity [7]: Dose-Dependent Effect | IC50 (MCF7): 1270 nM | inhibition [8]: Active | Activity [9]: Dose-Dependent Effect | Activity [10]: 17.1% | Activity [11]: 30.7% | inhibition [12]: 81% | Activity [13]: 48.6% | inhibition [14]: Active | Activity [15]: 16.1% | Activity [16]: Non-Toxic | inhibition (Mus musculus): Active | Activity [17]: Dose-Dependent Effect | Activity [18]: Non-Toxic | Activity [19]: 10.7% | Activity [20]: Dose-Dependent Effect | inhibition [21]: Dose-Dependent Effect | IC50 (NCI-H1975): 1040 nM | Activity [22]: 9.97% | half-life [23]: 827 min | Activity [24]: Non-Toxic | Activity [25]: Non-Toxic
